According to patent publication EP4169506B1, “PALMITOYLETHANOLAMIDE-BASED COMPOSITION IN THE FORM OF POWDERS WITH HIGH ENTERIC BIOACCESSIBILITY” (Geofarma S.r.l., priority 2021, dated 2023):

Experiment: Dispersion in tap water, then in simulated gastric and enteric liquid (GSF, FaSSIF V2)
Assay type: physicochemical
Details: 500 mg in 100 ml tap water, then GSF and FaSSIF V2, 37°C, 250 rpm, magnetic stirring (Figure 10)
Excerpt: • Figure 1. Representative image of the in vitro model of intestinal epithelium, with the Caco-2 cell monolayer grown on a Transwell® insert. • Figure 2. (A) Electron micrograph of enterocytes forming the Caco-2 monolayer with the microvilli and occluding junctions highlighted; (B) Confocal microscopy images highlighting the occluding junctions (red) and cell nuclei (blue). • Figure 3. Dimensional distribution of PEAMag®, normast® MPS microgranules and PEA of the invention measured by DLS at the end of the digestive process in vitro. • Figure 4. Bioaccessibility (A) and excreted fraction (B) of the PEA present in the three formulations, following exposure to the digestive process (* p<0.05). • Figure 5. Cell viability of intestinal epithelia exposed to digestive fluids in the absence of the formulations (0%) and increasing concentrations of PEAMag® (A), normast® MPS microgranules (B) and PEA of the invention (C) for 3 h (*cell viability < 70%). • Figure 6. TEER of intestinal epithelia exposed to digestive fluids in the absence of the formulations (0%) and increasing concentrations of PEAMag® (A), normast® MPS microgranules (B) and PEA of the invention (C) for 3 h. • Figure 7. […]

CCCCCCCCCCCCCCCC(=O)NCCO [PEA, Palmitoylethanolamide]
dispersion behaviour: emergence of the PEA on the surface of the liquid
